Measurements from patent US20250230171A1 (MOMA Therapeutics, Inc., priority 2023, published 2025).
Where two headings read alike, the source gives them in different places.

Tests used:
DLD1 WT cells = assay: 7-day cell viability assay (CellTiter-Glo), DLD1 parental (WT); format: cell-based, human; conditions: n=2
[1] = target: biotinylated Avi-POLθ[2-894] (Homo sapiens (Human), UniProt O75417); assay: POLθ ATPase assay (ADP-Glo); conditions: n=2, read-out: Biochemical ATPase ADPGlo IC50
DLD1 BRCA2 (−/−) cells = assay: 7-day cell viability assay (CellTiter-Glo), DLD1 BRCA2 (−/−); format: cell-based, human; conditions: n=2, read-out: Viability IC50 (uM) DLD1 BRCA2 null
Procedure, shortened: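 7-day growth assay in DLD1 cells with or without BRCA2; seeding densities chosen to keep log-linear growth. Compound: 10 uM top, 3-fold, 9 points. Endpoint: CTG ATP luminescence at RT.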

[2] = Homo sapiens, DLD-1, 168 h, 7-day viability
[3] = Homo sapiens, DLD-1, 168 h, 7-day CellTiter-Glo

Sequence of biotinylated Avi-POLθ[2-894] (O75417 2-894): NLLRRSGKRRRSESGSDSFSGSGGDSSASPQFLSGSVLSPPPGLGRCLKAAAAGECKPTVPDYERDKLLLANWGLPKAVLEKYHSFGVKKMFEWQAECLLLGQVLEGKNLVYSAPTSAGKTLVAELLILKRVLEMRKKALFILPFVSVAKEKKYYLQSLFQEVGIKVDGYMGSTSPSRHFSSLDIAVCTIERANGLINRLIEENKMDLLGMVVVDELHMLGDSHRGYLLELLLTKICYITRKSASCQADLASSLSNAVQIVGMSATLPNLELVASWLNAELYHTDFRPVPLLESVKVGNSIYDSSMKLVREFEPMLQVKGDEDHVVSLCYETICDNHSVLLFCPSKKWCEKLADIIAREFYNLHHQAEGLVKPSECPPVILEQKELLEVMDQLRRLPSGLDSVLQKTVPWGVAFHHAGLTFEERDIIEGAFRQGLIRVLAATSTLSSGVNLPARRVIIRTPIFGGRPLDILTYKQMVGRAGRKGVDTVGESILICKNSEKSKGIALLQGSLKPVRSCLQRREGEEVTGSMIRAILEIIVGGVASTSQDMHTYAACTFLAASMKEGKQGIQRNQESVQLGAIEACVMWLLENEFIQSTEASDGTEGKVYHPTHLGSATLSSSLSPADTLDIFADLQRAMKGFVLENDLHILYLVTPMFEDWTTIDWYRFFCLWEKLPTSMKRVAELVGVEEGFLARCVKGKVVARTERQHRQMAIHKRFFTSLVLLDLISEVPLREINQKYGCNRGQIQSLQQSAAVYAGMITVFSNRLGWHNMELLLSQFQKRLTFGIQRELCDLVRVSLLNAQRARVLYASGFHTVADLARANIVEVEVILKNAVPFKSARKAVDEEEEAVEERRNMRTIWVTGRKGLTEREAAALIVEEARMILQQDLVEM

Compound	IC50 [1] [nM]	IC50 (DLD1 BRCA2 (−/−) cells; [2]) [µM]	IC50 ([1]; POLθ ATPase, ADP-Glo) [nM]	IC50 (DLD1 BRCA2 (−/−) cells; [3]) [µM]	IC50 (DLD1 BRCA2 (−/−) cells; 7-day CellTiter-Glo) [µM]	IC50 (DLD1 WT cells; [2]) [µM]	IC50 (DLD1 WT cells; [3]) [µM]	IC50 (DLD1 WT cells; 7-day CellTiter-Glo) [µM]
COc1cnc(Cl)cc1-c1cc(C)ncc1C(=O)Nc1nc2c(s1)CN(C(=O)c1ccc(C(F)(F)F)nc1OC)C2 [Example 15, 2′-chloro-5′-methoxy-N-(5-(2-methoxy-6-(trifluoromethyl)nicotinoyl)-5,6-dihydro-4H-pyrrolo[3,4-d]thiazol-2-yl)-6-methyl-[4,4′-bipyridine]-3-carboxamide]	1 to 15	0.001 to 0.1	–	–	–	5 to 10	–	–
COc1cnc(Cl)cc1-c1cc(C)ncc1C(=O)Nc1nc2c(s1)CN(C(=O)c1cnn(C(F)F)c1)C2 (racemic)	1 to 15	0.001 to 0.1	–	–	–	0.001 to 0.5	–	–
COc1ccc(C#N)cc1-c1cc(C)ncc1C(=O)Nc1nc2c(s1)CN(C(=O)c1ccnc(C)c1)C2	1 to 15	≥ 2	–	–	–	≥ 10	–	–
COc1ccc(C#N)cc1-c1cc(C)ncc1C(=O)Nc1nc2c(s1)CN(C(=O)c1ccncc1)C2	1 to 15	≥ 2	–	–	–	≥ 10	–	–
N-(5-(2-Chloro-5-(difluoromethyl)benzoyl)-5,6-dihydro-4H-pyrrolo[3,4-d]thiazol-2-yl)-4-(5-cyano-2-methoxyphenyl)-6-methylnicotinamide [Example 489]	–	–	1 to 15	–	0.001 to 0.1	–	–	5 to 10
COc1ccc(C(=O)N2Cc3nc(NC(=O)c4cnc(C)cc4-c4cc(Cl)ncc4OC)sc3C2)c(Cl)n1	–	–	1 to 15	0.001 to 0.1	–	–	≥ 10	–
COc1cnc(Cl)cc1-c1cc(C)ncc1C(=O)Nc1nc2c(s1)CN(C(=O)c1cccc3ccnn13)C2	1 to 15	0.001 to 0.1	–	–	–	≥ 10	–	–
COc1ccc(C#N)cc1-c1cc(C)ncc1C(=O)Nc1nc2c(s1)CN(S(=O)(=O)NCC(F)(F)F)C2	1 to 15	≥ 2	–	–	–	≥ 10	–	–

Further lines, with some results ahead:

IC50 [1] [nM]	IC50 (DLD1 BRCA2 (−/−) cells; [2]) [µM]	IC50 ([1]; POLθ ATPase, ADP-Glo) [nM]	IC50 (DLD1 BRCA2 (−/−) cells; [3]) [µM]	IC50 (DLD1 BRCA2 (−/−) cells; 7-day CellTiter-Glo) [µM]	Compound	IC50 (DLD1 WT cells; [2]) [µM]	IC50 (DLD1 WT cells; [3]) [µM]	IC50 (DLD1 WT cells; 7-day CellTiter-Glo) [µM]
1 to 15	0.5 to 2	–	–	–	CCCNS(=O)(=O)N1Cc2nc(NC(=O)c3cnc(C)cc3-c3cc(C#N)ccc3OC)sc2C1 [Example 270]	≥ 10	–	–
–	–	1 to 15	0.001 to 0.1	–	COc1cnc(Cl)cc1-c1cc(C)ncc1C(=O)Nc1nc2c(s1)CN(C(=O)C1CCC(OC(F)(F)F)C1)C2 (racemic) [Example 397, (Racemic) 2′-chloro-5′-methoxy-6-methyl-N-(5-(3-(trifluoromethoxy)cyclopentane-1-carbonyl)-5,6-dihydro-4H-pyrrolo[3,4-d]thiazol-2-yl)-[4,4′-bipyridine]-3-carboxamide]	–	≥ 10	–
1 to 15	0.001 to 0.1	–	–	–	COc1ccc(C#N)cc1-c1cc(C)ncc1C(=O)Nc1nc2c(s1)CN(C(=O)C1CC(OC(F)F)C1)C2 (stereo not drawn) [Example 179]	≥ 10	–	–
50 to 150	0.5 to 2	–	–	–	COc1ccccc1-c1cc(C)ncc1C(=O)Nc1nc2c(s1)CN(C(=O)OC(C)(C)C)C2 [Example 314]	2 to 5	–	–
1 to 15	0.001 to 0.1	–	–	–	COc1cnc(Cl)cc1-c1cc(C)ncc1C(=O)Nc1nc2c(s1)CN(C(=O)c1cccnc1OC)C2 [Example 172]	≥ 10	–	–
–	–	1 to 15	0.001 to 0.1	–	COc1cnc(Cl)cc1-c1cc(C)ncc1C(=O)Nc1nc2c(s1)CN(C(=O)c1ccc(C(F)(F)F)nc1OC)[C@H]2C (single isomer, unassigned) [Example 1041, (S or R)-2′-chloro-5′-methoxy-N-(5-(2-methoxy-6-(trifluoromethyl)nicotinoyl)-4-methyl-5,6-dihydro-4H-pyrrolo[3,4-d]thiazol-2-yl)-6-methyl-[4,4′-bipyridine]-3-carboxamide]	–	≥ 10	–
1 to 15	0.001 to 0.1	–	–	–	COc1cnc(Cl)cc1-c1cc(C)ncc1C(=O)Nc1nc2c(s1)CN(C(=O)C1CC3(CC(OC)C3)C1)C2 (stereo not drawn) [Example 140]	5 to 10	–	–
1 to 15	0.001 to 0.1	–	–	–	COc1cnc(Cl)cc1-c1cc(C)ncc1C(=O)Nc1nc2c(s1)CN(C(=O)C1CCCC(OC)C1)C2 (racemic) [Example 128, (Racemic) 2′-chloro-5′-methoxy-N-(5-(3-methoxycyclohexane-1-carbonyl)-5,6-dihydro-4H-pyrrolo[3,4-d]thiazol-2-yl)-6-methyl-[4,4′-bipyridine]-3-carboxamide]	≥ 10	–	–
1 to 15	≥ 2	–	–	–	COc1ccc(C#N)cc1-c1cc(C)ncc1C(=O)Nc1nc2c(s1)CN(S(=O)(=O)NC(C)C)C2 [Example 269]	≥ 10	–	–
1 to 15	0.001 to 0.1	–	–	–	COc1cnc(Cl)cc1-c1cc(C)ncc1C(=O)Nc1nc2c(s1)CN(C(=O)c1cc(C)n(C)n1)C2 [Example 17, 2′-chloro-N-(5-(1,5-dimethyl-1H-pyrazole-3-carbonyl)-5,6-dihydro-4H-pyrrolo[3,4-d]thiazol-2-yl)-5′-methoxy-6-methyl-[4,4′-bipyridine]-3-carboxamide]	0.001 to 0.5	–	–
1 to 15	0.1 to 0.25	–	–	–	COc1cnc(Cl)cc1-c1cc(C)ncc1C(=O)Nc1nc2c(s1)CN(C(=O)c1ncccc1OC)C2 [Example 169]	≥ 10	–	–
